This series in a line: Solubilizing potency: solubility of hydrocortisone in aqueous solutions of cyclodextrin derivatives. It is filed as physicochemical. The following applies: 5% (w/w) aqueous solutions of the derivative; P264 and P258 crystalline components used without heat drying.

As to Heptakisdimethylbetacyclodextrin, the “Solubility Of Hydrocortisone” value came out at 8800 µg/mL.

The record behind these values is US6602860B1, “Crystalline mixtures of partial methyl ethers of beta-cyclodextrin and related compounds” (priority 1999, dated 2003).
